According to patent publication US9765091B2, “Tetrahydropyrazolo [3,4-b] azepine derivatives and their use as allosteric modulators of metabotropic glutamate receptors” (Addex Pharma S.A., priority 2010, dated 2017):

Experiments:
human mGluR4 = molecular target: T1, human mGluR4 (Homo sapiens, UniProt Q14833); experiment: Fluorescent cell based Ca2+ mobilization assay (FLIPR) on HEK-293 cells expressing human mGluR4; details: positive allosteric modulation, HEK-293 cells expressing hmGluR4, stimulated by EC25 glutamate; mean of at least three independent experiments in duplicate; read-out: Ca^2+ Flux* (mean EC50)
T1 construct: expressed in transfected cells
T1 sequence (Q14833 33-912): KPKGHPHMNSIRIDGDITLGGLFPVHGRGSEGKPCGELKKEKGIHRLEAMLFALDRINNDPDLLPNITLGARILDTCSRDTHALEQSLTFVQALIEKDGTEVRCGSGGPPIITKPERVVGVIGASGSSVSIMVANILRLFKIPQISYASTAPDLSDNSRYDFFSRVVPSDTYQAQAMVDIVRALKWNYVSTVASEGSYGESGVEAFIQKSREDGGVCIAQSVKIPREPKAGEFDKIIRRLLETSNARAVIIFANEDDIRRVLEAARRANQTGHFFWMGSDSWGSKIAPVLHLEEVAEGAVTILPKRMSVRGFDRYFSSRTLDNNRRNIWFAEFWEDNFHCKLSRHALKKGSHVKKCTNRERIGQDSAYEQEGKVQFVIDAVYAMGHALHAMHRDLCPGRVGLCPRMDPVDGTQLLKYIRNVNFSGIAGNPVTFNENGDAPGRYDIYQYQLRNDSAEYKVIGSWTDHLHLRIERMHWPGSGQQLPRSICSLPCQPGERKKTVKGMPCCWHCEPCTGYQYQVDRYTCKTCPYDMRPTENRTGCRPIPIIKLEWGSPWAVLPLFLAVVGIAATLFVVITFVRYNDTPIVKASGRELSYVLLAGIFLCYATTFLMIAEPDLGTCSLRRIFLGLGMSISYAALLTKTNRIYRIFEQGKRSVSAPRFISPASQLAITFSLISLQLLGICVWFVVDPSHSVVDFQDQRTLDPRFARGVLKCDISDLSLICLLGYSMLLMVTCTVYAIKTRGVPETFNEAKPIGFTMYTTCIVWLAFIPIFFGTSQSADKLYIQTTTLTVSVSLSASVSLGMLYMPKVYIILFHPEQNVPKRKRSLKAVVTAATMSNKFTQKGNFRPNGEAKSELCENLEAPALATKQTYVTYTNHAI
From the text: mGluR4 Assay on HEK-Expressing Human mGluR4
The compounds of the present invention are positive allosteric modulators of mGluR4 receptor. Their activity was examined on recombinant human mGluR4a receptors by detecting changes in intracellular Ca^2+ concentration, using the fluorescent Ca^2+-sensitive dye Fluo4-(AM) and a Fluorometric Imaging Plate Reader (FLIPR, Molecular Devices, Sunnyvale, Calif.).
The cDNA encoding the human metabotropic glutamate receptor (hmGluR4), (accession number NM_000841.1, NCBI Nucleotide database browser), was subcloned into an expression vector containing also the hygromycin resistance gene. In parallel, the cDNA encoding a G protein allowing redirection of the activation signal to intracellular calcium flux was subcloned into a different expression vector containing also the puromycin resistance gene. Transfection of both these vectors into HEK293 cells with PolyFect reagent (Qiagen) according to supplier's protocol, and hygromycin and puromycin treatment allowed selection of antibiotic resistant cells which had integrated stably one or more copies of the plasmids. Positive cellular clones expressing hmGluR4 were identified in a functional assay measuring changes in calcium fluxes in response to glutamate or selective known mGluR4 orthosteric agonists and antagonists. HEK-293 cells expressing hmGluR4 were maintained in media containing DMEM, dialyzed Fetal Calf Serum (10%), Glutamax™ (2 mM), Penicillin (100 units/mL), Streptomycin (100 μg/mL), Geneticin (100 μg/mL) and Hygromycin-B (40 μg/mL) and puromycin (1 μg/mL) at 37° C./5% CO2.
Human mGluR4 HEK-293 cells were plated out 24 hours prior to FLIPR^384 assay in black-walled, clear-bottomed, poly-L-ornithine-coated 384-well plates at a density of 25,000 cells/well in a glutamine/glutamate free DMEM medium containing foetal bovine serum (10%), penicillin (100 units/mL) and streptomycin (100 μg/mL) at 37° C./5% CO2.
On the day of the assay, the medium was aspirated and the cells were loaded with a 3 μM solution of Fluo4-AM (LuBioScience, Lucerne, Switzerland) in 0.03% pluronic acid. After 1 hour at 37° C./5% CO2, the non incorporated dye was removed by washing cell plate with the assay buffer and the cells were left in the dark at room temperature for […] before testing. All assays were performed in a pH 7.4 buffered-solution containing 20 mM HEPES, 143 mM NaCl, 6 mM KCl, 1 mM MgSO4, 1 mM CaCl2, 0.125 mM sulfapyrazone and 0.1% glucose.
After 10 s of basal fluorescence recording, various concentrations of the compounds of the invention were added to the cells. Changes in fluorescence levels were first monitored for 180 s in order to detect any agonist activity of the compounds. Then the cells were stimulated by an EC25 glutamate concentration for an additional 110 s in order to measure enhancing activities of the compounds of the invention. EC25 glutamate concentration is the concentration giving 25% of the maximal glutamate response.
The concentration-response curves of representative compounds of the present invention were generated using the Prism GraphPad software (Graph Pad Inc, San Diego, USA). The curves were fitted to a four-parameter logistic equation: (Y=Bottom+(Top−Bottom)/(1+10^((Log EC50−X)*Hill Slope) allowing the determination of EC50 values.
The Table 4 below represents the mean EC50 obtained from at least three independent experiments of selected molecules performed in duplicate.

Structure (SMILES): COCC(C)N1CCc2sc(Nc3nccc(C)n3)nc2-c2c[nH]nc21 (stereo not shown) [Compound 1-11, 6-(1-Methoxypropan-2-yl)-N-(4-methylpyrimidin-2-yl)-4,5,6,8-tetrahydropyrazolo[3,4-b]thiazolo[4,5-d]azepin-2-amine]
- melting point: 233 °C
- EC50 (human mGluR4): < 100 nM

Structure (SMILES): COCCN1CCc2sc(Nc3ccc(F)cn3)nc2-c2c[nH]nc21 [Compound 1-15, N-(5-Fluoropyridin-2-yl)-6-(2-methoxyethyl)-4,5,6,8-tetrahydropyrazolo[3,4-b]thiazolo[4,5-d]azepin-2-amine]
- melting point: 218 °C
- EC50 (human mGluR4): 100 to 1000 nM

Structure (SMILES): Cc1cc(CN2CCc3sc(Nc4ncc(F)cn4)nc3-c3c[nH]nc32)on1 [Compound 1-35, N-(5-Fluoropyrimidin-2-yl)-6-((3-methylisoxazol-5-yl)methyl)-4,5,6,8-tetrahydropyrazolo[3,4-b]thiazolo[4,5-d]azepin-2-amine]
- melting point: 280 °C
- EC50 (human mGluR4): < 100 nM

Structure (SMILES): Cc1ccnc(Nc2nc3c(s2)CCN(C)c2n[nH]cc2-3)n1 [Compound 1-1, 6-Methyl-N-(4-methylpyrimidin-2-yl)-4,5,6,8-tetrahydropyrazolo[3,4-b]thiazolo[4,5-d]azepin-2-amine]
- melting point: 292 °C
- EC50 (human mGluR4): < 100 nM

Structure (SMILES): Cc1ccnc(Nc2nc3c(s2)CCN(C(C)C)c2n[nH]cc2-3)n1 [Compound 1-5, 6-Isopropyl-N-(4-methylpyrimidin-2-yl)-4,5,6,8-tetrahydropyrazolo[3,4-b]thiazolo[4,5-d]azepin-2-amine]
- melting point: 247 °C
- EC50 (human mGluR4): < 100 nM

Structure (SMILES): Cc1noc(C)c1CN1CCc2sc(Nc3ncc(F)cn3)nc2-c2c[nH]nc21 [Compound 1-23, 6-((3,5-Dimethylisoxazol-4-yl)methyl)-N-(5-fluoropyrimidin-2-yl)-4,5,6,8-tetrahydropyrazolo[3,4-b]thiazolo[4,5-d]azepin-2-amine]
- melting point: 275 °C
- EC50 (human mGluR4): < 100 nM

Structure (SMILES): Cc1nc(Nc2nc3c(s2)CCN(C)c2n[nH]cc2-3)ns1 [Compound 1-8, 6-Methyl-N-(5-methyl-1,2,4-thiadiazol-3-yl)-4,5,6,8-tetrahydropyrazolo[3,4-b]thiazolo[4,5-d]azepin-2-amine]
- melting point: 291 °C
- EC50 (human mGluR4): < 100 nM

Structure (SMILES): CC(C)c1nc(CN2CCc3sc(Nc4ncc(F)cn4)nc3-c3c[nH]nc32)co1 [Compound 1-24, N-(5-Fluoropyrimidin-2-yl)-6-((2-isopropyloxazol-4-yl)methyl)-4,5,6,8-tetrahydropyrazolo[3,4-b]thiazolo[4,5-d]azepin-2-amine]
- melting point: 271 °C
- EC50 (human mGluR4): < 100 nM

Structure (SMILES): COCCN1CCc2sc(Nc3cccc(F)n3)nc2-c2c[nH]nc21 [Compound 1-14, N-(6-Fluoropyridin-2-yl)-6-(2-methoxyethyl)-4,5,6,8-tetrahydropyrazolo[3,4-b]thiazolo[4,5-d]azepin-2-amine]
- melting point: 203 °C
- EC50 (human mGluR4): < 100 nM

Structure (SMILES): CCN1CCc2sc(Nc3ncc(F)cn3)nc2-c2c[nH]nc21 [Compound 1-34, 6-Ethyl-N-(5-fluoropyrimidin-2-yl)-4,5,6,8-tetrahydropyrazolo[3,4-b]thiazolo[4,5-d]azepin-2-amine]
- melting point: 306 °C
- EC50 (human mGluR4): < 100 nM

Structure (SMILES): Cc1cccc(Nc2nc3c(s2)CCN(CC2CC2)c2n[nH]cc2-3)n1 [Compound 1-39, 6-(Cyclopropylmethyl)-N-(6-methylpyridin-2-yl)-4,5,6,8-tetrahydropyrazolo[3,4-b]thiazolo[4,5-d]azepin-2-amine]
- melting point: 285 °C
- EC50 (human mGluR4): 100 to 1000 nM

Structure (SMILES): Fc1cccc(Nc2nc3c(s2)CCN(CC2CC2)c2n[nH]cc2-3)n1 [Compound 1-40, 6-(Cyclopropylmethyl)-N-(6-fluoropyridin-2-yl)-4,5,6,8-tetrahydropyrazolo[3,4-b]thiazolo[4,5-d]azepin-2-amine]
- melting point: 297 °C
- EC50 (human mGluR4): 100 to 1000 nM

Structure (SMILES): COc1cccc(CN2CCc3sc(Nc4ncc(F)cn4)nc3-c3cn[nH]c32)c1 [Compound 1-60, N-(5-Fluoropyrimidin-2-yl)-6-(3-methoxybenzyl)-4,5,6,7-tetrahydropyrazolo[3,4-b]thiazolo[4,5-d]azepin-2-amine]
- EC50 (human mGluR4): 100 to 1000 nM

Structure (SMILES): Fc1cnc(Nc2nc3c(s2)CCN(CCc2ccccc2)c2[nH]ncc2-3)nc1 [Compound 1-65, N-(5-Fluoropyrimidin-2-yl)-6-phenethyl-4,5,6,7-tetrahydropyrazolo[3,4-b]thiazolo[4,5-d]azepin-2-amine]
- EC50 (human mGluR4): 100 to 1000 nM

Structure (SMILES): Fc1cnc(Nc2nc3c(s2)CCN(Cc2cccc(Cl)c2)c2[nH]ncc2-3)nc1 [Compound 1-67, 6-(3-Chlorobenzyl)-N-(5-fluoropyrimidin-2-yl)-4,5,6,7-tetrahydropyrazolo[3,4-b]thiazolo[4,5-d]azepin-2-amine]
- EC50 (human mGluR4): 100 to 1000 nM

Structure (SMILES): Fc1cnc(Nc2nc3c(s2)CCN(Cc2ncc(Cl)s2)c2[nH]ncc2-3)nc1 [Compound 1-79, 6-((5-Chlorothiazol-2-yl)methyl)-N-(5-fluoropyrimidin-2-yl)-4,5,6,7-tetrahydropyrazolo[3,4-b]thiazolo[4,5-d]azepin-2-amine]
- EC50 (human mGluR4): 100 to 1000 nM

Structure (SMILES): Fc1cnc(Nc2nc3c(s2)CCNc2n[nH]cc2-3)nc1 [Compound 1-25, N-(5-Fluoropyrimidin-2-yl)-4,5,6,8-tetrahydropyrazolo[3,4-b]thiazolo[4,5-d]azepin-2-amine]
- melting point: 312 °C
- EC50 (human mGluR4): < 100 nM

Structure (SMILES): COCCN1CCc2sc(Nc3cccc(CO)n3)nc2-c2c[nH]nc21 [Compound 1-53, (6-(6-(2-Methoxyethyl)-4,5,6,8-tetrahydropyrazolo[3,4-b]thiazolo[4,5-d]azepin-2-ylamino)pyridin-2-yl)methanol]
- EC50 (human mGluR4): 1000 to 10000 nM

Structure (SMILES): Fc1cnc(Nc2nc3c(s2)CCN(CCc2ccccn2)c2[nH]ncc2-3)nc1 [Compound 1-71, N-(5-Fluoropyrimidin-2-yl)-6-(2-(pyridin-2-yl)ethyl)-4,5,6,7-tetrahydropyrazolo[3,4-b]thiazolo[4,5-d]azepin-2-amine]
- EC50 (human mGluR4): 1000 to 10000 nM

Structure (SMILES): Cc1cc(CN2CCc3sc(Nc4nccc(C)n4)nc3-c3c[nH]nc32)on1 [Compound 1-46, 6-((3-Methylisoxazol-5-yl)methyl)-N-(4-methylpyrimidin-2-yl)-4,5,6,8-tetrahydropyrazolo[3,4-b]thiazolo[4,5-d]azepin-2-amine]
- EC50 (human mGluR4): < 100 nM

Structure (SMILES): Fc1cnc(Nc2nc3c(s2)CCN(Cc2ccc(C(F)(F)F)cn2)c2[nH]ncc2-3)nc1 [Compound 1-62, N-(5-Fluoropyrimidin-2-yl)-6-((5-(trifluoromethyl)pyridin-2-yl)methyl)-4,5,6,7-tetrahydropyrazolo[3,4-b]thiazolo[4,5-d]azepin-2-amine]
- EC50 (human mGluR4): < 100 nM

Structure (SMILES): Fc1cnc(Nc2nc3c(s2)CCN(Cc2ncccn2)c2[nH]ncc2-3)nc1 [Compound 1-49, N-(5-Fluoropyrimidin-2-yl)-6-(pyrimidin-2-ylmethyl)-4,5,6,7-tetrahydropyrazolo[3,4-b]thiazolo[4,5-d]azepin-2-amine]
- EC50 (human mGluR4): < 100 nM

Structure (SMILES): Fc1cnc(Nc2nc3c(s2)CCN(CC2CCC2)c2n[nH]cc2-3)nc1 [Compound 1-44, 6-(Cyclobutylmethyl)-N-(5-fluoropyrimidin-2-yl)-4,5,6,8-tetrahydropyrazolo[3,4-b]thiazolo[4,5-d]azepin-2-amine]
- EC50 (human mGluR4): < 100 nM

Structure (SMILES): Cc1nc(Nc2nc3c(s2)CCN(C)c2n[nH]cc2-3)ncc1F [Compound 1-9, N-(5-Fluoro-4-methylpyrimidin-2-yl)-6-methyl-4,5,6,8-tetrahydropyrazolo[3,4-b]thiazolo[4,5-d]azepin-2-amine]
- EC50 (human mGluR4): 100 to 1000 nM
